Data: patent US20260146044A1, “AROMATIC COMPOUND, PHARMACEUTICAL COMPOSITION CONTAINING SAME, AND USE THEREOF” (Increland, priority 2023, published 2026)

How the values were obtained:
[1] = test system: secretion levels of IL-6 in PBMC cells; experiment: Inhibition of R848-induced IL-6 secretion in PBMC (IL-6 ELISA); type: cell-based; details: human PBMC, 20 h compound pre-incubation, 24 h stimulation
Protocol: This experiment was carried out in RPMI 1640 medium containing 10% FBS/1% penicillin/streptomycin, with each of the compounds at an initial test concentration of 1 μM. The compound DMSO was dissolved to form a stock solution, which was gradiently diluted 4-fold with the culture medium to a 4× working solution concentration. The diluted solution was added to a 96-well plate with 50 μL per well. PBMC (batch No.: HPP20062307, Sichuan Hope Bio-tech Co., Ltd.) cells were counted, and diluted to a concentration of 2×10^6/mL. The diluted cells were added to the above compound-containing 96-well plate with 150 μL per well, fully mixed, and incubated in an incubator with 5% CO2 at 37° C. for 20 h. Then, R848 was further added until a final concentration of […], and the cells were further incubated in the incubator with 5% CO2 at 37° C. for additional 24 h. Then, after centrifugation at 2,000 rpm for 4 min, the supernatant was diluted 110×, and detected using an IL-6 ELISA kit. An OD450 value was read, and converted to an IL-6 concentration based on a standard curve, to calculate an IC50 value by fitting a dose-effect curve using GraphPad 5.0.

[2] = Metabolic stability in human liver microsome; details: liver microsomes
Protocol: (§1) Blank incubation plates T60 and NCF60 were preheated for 10 min; liver microsome was diluted to 0.56 mg/mL in 100 mM phosphate buffer, 445 μL of the microsome working solution (0.56 mg/mL) was transferred to the preheated “incubation” plates T60 and NCF60, and then the incubation plates T60 and NCF60 were pre-incubated with continuous shaking at 37° C. for 10 min. 54 μL of the liver microsome was transferred to a blank plate, then 6 μL of a NAPDH cofactor was added to the blank plate, and then 180 μL of a quenching solution was added to the blank plate; 5 µL of a composite working solution (100 μM) was added to each of the microsome-containing incubation plates (T60 and NCF60), and the mixture was thoroughly mixed 3 times; 50 μL of a buffer was added to the NCF60 plate, and the mixture was thoroughly mixed 3 times. Timing was started; the plates were incubated with shaking at 37° C. for 60 min; and 180 μL of a quenching solution and 6 μL of the NAPDH cofactor were added to a quenching plate TO. The plates were ensured to be cooled to prevent evaporation. For the T60 plate, the mixture was thoroughly mixed 3 times, and 54 μL of the mixture was immediately transferred to the quenching plate at the time point of 0 min. Then, 44 μL of the NAPDH cofactor was added to the incubation plate (T60). Timing was started; and the plate was incubated with shaking at 37° C. for 60 min. At 5, 15, 30, 45, and 60 min, 180 μL of the quenching solution was added to the quenching plate, mixed once, and then 60 μL of sample was continuously transferred from the plate T60 to the quenching plate at each time point.
(§2) For NCF60, the mixture was mixed once, and at the time point of 60 min, 60 μL of sample was transferred from the NCF60 incubator to the quenching solution-containing quenching plate. All sampling plates were shaken for 10 min, then centrifuged at 4,000 rpm at 4° C. for 20 min. 80 µL of the supernatant was transferred to 240 μL of HPLC water, and mixed using a plate shaker for 10 min.

[3] = Metabolic stability in mouse liver microsome; details: liver microsomes
Protocol: as §1, §2

[4] = test system: secretion levels of IL-6 in PBMC cells; experiment: Inhibition of LPS+IL-1β-induced IL-6 secretion in PBMC (IL-6 ELISA); type: cell-based; details: human PBMC, 24 h compound pre-incubation, 20 h stimulation
Protocol: This experiment was carried out in RPMI 1640 medium containing 10% FBS/1% penicillin/streptomycin, with each of the compounds at an initial test concentration of 1 μM. The compound DMSO was dissolved to form a stock solution, which was gradiently diluted 5-fold with the culture medium to a 4× working solution concentration. The diluted solution was added to a 96-well plate with 50 μL per well. PBMC (batch No.: HPP20062307, Sichuan Hope Bio-tech Co., Ltd.) cells were counted, and diluted to a concentration of 2×10^6/mL. The diluted cells were added to the above compound-containing 96-well plate with 150 μL per well, fully mixed, and incubated in an incubator with 5% CO2 at 37° C. for 24 h. Then, LPS and […] were further added to final concentrations of 10 ng/mL and 20 ng/mL, respectively, and the cells were further incubated in the incubator with 5% CO2 at 37° C. for 20 h. Then, after centrifugation at 2,000 rpm for 4 min, the supernatant was diluted 110×, and detected using an IL-6 ELISA kit. An OD450 value was read, and converted to an IL-6 concentration based on a standard curve, to calculate an IC50 value by fitting a dose-effect curve using GraphPad 5.0.

[5] = microsomes
Protocol: as §1, §2

[6] = microsomes; remark: listed apart in the source
Protocol: as §1, §2

[7] = Pharmacokinetic experiment on SD rats (iv and ig); type: in vivo; details: Sprague-Dawley, rat, plasma; for Cmax: read-out: Peak plasma concentration Cmax
Protocol: Pharmacokinetic experiment on SD rats: in this experiment, two administration modes: oral intragastric administration and tail vein injection were selected. Each of the compounds of the present patented invention was administered at an oral dose of 5 mg/kg at an administration volume of 10 mL/kg. […] Appropriate amounts of Solutol and H2O were proportionally added sequentially, and fully mixed ultrasonically by vortexing, to prepare a clear drug solution at 0.5 mg/mL. ICL004-protodrug was administered by intravenous injection at a dose of 1 mg/kg at an administration volume of 10 mL/kg. Right before use, an appropriate amount of the drug was accurately weighed, to prepare a final volume of 20% PEG 400 and 80% Saline. Appropriate amounts of PEG 400 and Saline were proportionally added sequentially, and fully mixed ultrasonically by vortexing, to prepare a clear drug solution at 0.1 mg/mL.
6 SD rats, each with body weight of 180-220 g, were randomly grouped into 2 groups. After fasting but with free access to water overnight, each […] in the first group was administered by gavage. 200 μL of blood was sampled from its eye socket into an anticoagulant tube respectively at each time point of 15 min, 30 min, 1 h, 2 h, 4 h, 6 h, 8 h, and 24 h after administration. Within one h, each of the blood samples was centrifuged at 10,000 rpm at 4° C. for 20 min (the sample was stored on an ice box prior to the centrifugation), and the supernatant (i.e., the plasma) was stored in a refrigerator at −20° C. for LC-MS/MS analysis. 200 μL of blood was sampled from the eye socket of each […] in the second group into an anticoagulant tube respectively at each time point of 5 min, 15 min, 30 min, 1 h, 2 h, 4 h, 8 h, and 24 h after administration by intravenous injection. Within one h, each of the blood samples was centrifuged at 10,000 rpm at 4° C. for 20 min (the blood sample was stored on an ice box prior to the centrifugation), and the supernatant, i.e., the plasma, was stored in a refrigerator at −20° C. for LC-MS/MS analysis.

[8] = Pharmacokinetic experiment on mice (iv and ig); type: in vivo; details: mouse, plasma, BALB/c Mice; for Cmax: read-out: Peak plasma concentration Cmax

| SMILES | IC50 [1] [nM] | half-life at 1 µM [2] [min] | half-life at 1 µM [3] [min] | IC50 [4] [nM] | Mouse liver microsome (t1/2, min) [5] [min] | Human liver microsome (t1/2, min) [6] [min] | AUC ([7]; iv, 1.00 mg/kg) [ng·h/mL] | AUC(0-inf) ([7]; iv, 1.00 mg/kg) [ng·h/mL] | Cmax ([7]; iv, 1.00 mg/kg) [ng/mL] | bioavailability ([7]; po, ig 5.00 mg/kg vs iv 1.00 mg/kg, read-out: Oral bioavailability Fobs (%)) [%] | AUC ([7]; po, ig, 5.00 mg/kg) [ng·h/mL] | AUC(0-inf) ([7]; po, ig, 5.00 mg/kg) [ng·h/mL] | Cmax ([7]; po, ig, 5.00 mg/kg) [ng/mL] | bioavailability ([8]; po, ig 3.00 mg/kg vs iv 1.00 mg/kg, read-out: Oral bioavailability Fobs (%)) [%] | AUC ([8]; po, ig, 3.00 mg/kg) [ng·h/mL] | AUC(0-inf) ([8]; po, ig, 3.00 mg/kg) [ng·h/mL] | Cmax ([8]; po, ig, 3.00 mg/kg) [ng/mL] | AUC ([8]; iv, 1.00 mg/kg) [ng·h/mL] | AUC(0-inf) ([8]; iv, 1.00 mg/kg) [ng·h/mL] | Cmax ([8]; iv, 1.00 mg/kg) [ng/mL] |
| --- | --- | --- | --- | --- | --- | --- | --- | --- | --- | --- | --- | --- | --- | --- | --- | --- | --- | --- | --- | --- |
| Cn1c(=O)n(C2CCC(=O)NC2=O)c2cccc(C#CCOC3CCN(C[C@H]4CC[C@H](n5cc(NC(=O)c6cnn7ccc(N8C[C@H]9C[C@@H]8CO9)nc67)c(C(F)F)n5)CC4)CC3)c21 (stereo partly shown) [Positive compound, reference compound] | 38.5 | 39.4 | 29.4 | 38.4 | – | – | – | – | – | – | – | – | – | – | – | – | – | – | – | – |
| COc1cc2nn([C@H]3CC[C@H](CN4CCC(c5cccc6c5c(C)nn6C5CCC(=O)NC5=O)CC4)CC3)cc2cc1NC(=O)c1cccc(C(F)(F)F)n1 (stereo partly shown) [TM-25] | 28 | – | – | – | 128.7 | 117.1 | – | – | – | – | – | – | – | – | – | – | – | – | – | – |
| Cc1nn(C2CCC(=O)NC2=O)c2cccc(N3CCN(C[C@H]4CC[C@H](n5cc6cc(NC(=O)c7cnn8cccnc78)c(N7CCOCC7)cc6n5)CC4)CC3)c12 (stereo partly shown) [TM-33] | 13 | 77.9 | 46.9 | 10.2 | – | – | 2250 | 2300 | 530 | 91.9 | 13800 | 10600 | 1100 | 92.1 | 135000 | 289000 | 12400 | 63100 | 104000 | 6800 |
